{"source": "ChEMBL document CHEMBL5233252", "about": "“Single and dual target inhibitors based on Bcl-2: Promising anti-tumor agents for cancer therapy” (Eur J Med Chem, 2020)", "key": {"[1]": {"molecular_target": "T1, Apoptosis regulator Bcl-2 (Homo sapiens, UniProt P10415)", "T1 sequence (P10415 whole entry)": "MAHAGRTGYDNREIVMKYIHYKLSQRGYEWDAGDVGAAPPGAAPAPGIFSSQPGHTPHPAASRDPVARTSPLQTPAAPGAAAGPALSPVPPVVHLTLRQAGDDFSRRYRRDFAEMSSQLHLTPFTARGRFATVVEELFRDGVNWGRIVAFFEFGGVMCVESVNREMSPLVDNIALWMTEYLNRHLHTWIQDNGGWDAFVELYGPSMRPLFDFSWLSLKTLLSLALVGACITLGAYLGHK", "assay": "Inhibition of Flu-BakBH3 binding to recombinant GST-tagged Bcl-2 (unknown origin) incubated for 30 mins by competitive fluorescence polarization assay"}, "[2]": {"molecular_target": "T1, Apoptosis regulator Bcl-2", "assay": "Binding affinity to Bcl-2 (unknown origin) by ELISA analysis"}, "[3]": {"assay": "Inhibition of Bcl-2/Mcl-1 in human MCF7 cells", "assay_type": "cell-based"}, "[4]": {"molecular_target": "T1, Apoptosis regulator Bcl-2", "assay": "Inhibition of Bcl-2 (unknown origin) by ELISA analysis"}, "[5]": {"molecular_target": "T1, Apoptosis regulator Bcl-2", "assay": "Binding affinity to recombinant Bcl-2 (unknown origin) expressed in Escherichia coli BL21 (DE3) cells assessed as dissociation constant by MST analysis"}, "[6]": {"molecular_target": "T2, Induced myeloid leukemia cell differentiation protein Mcl-1 (Homo sapiens, UniProt Q07820)", "T2 sequence (Q07820 whole entry)": "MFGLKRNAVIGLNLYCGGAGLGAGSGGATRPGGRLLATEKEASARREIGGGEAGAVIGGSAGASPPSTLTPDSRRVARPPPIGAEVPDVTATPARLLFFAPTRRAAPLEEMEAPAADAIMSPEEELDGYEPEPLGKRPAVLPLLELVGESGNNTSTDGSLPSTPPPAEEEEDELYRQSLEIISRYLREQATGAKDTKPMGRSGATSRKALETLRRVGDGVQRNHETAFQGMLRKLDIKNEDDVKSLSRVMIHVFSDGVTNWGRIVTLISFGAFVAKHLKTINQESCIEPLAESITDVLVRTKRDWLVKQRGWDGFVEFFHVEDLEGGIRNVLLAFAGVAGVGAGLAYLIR", "assay": "Binding affinity to Mcl-1 (unknown origin) assessed as inhibition constant"}, "[7]": {"molecular_target": "T1, Apoptosis regulator Bcl-2", "assay": "Binding affinity to Bcl-2 (unknown origin) assessed as inhibition constant"}, "[8]": {"molecular_target": "T3, Bcl-2-like protein 1 (Homo sapiens, UniProt Q07817)", "T3 sequence (Q07817 whole entry)": "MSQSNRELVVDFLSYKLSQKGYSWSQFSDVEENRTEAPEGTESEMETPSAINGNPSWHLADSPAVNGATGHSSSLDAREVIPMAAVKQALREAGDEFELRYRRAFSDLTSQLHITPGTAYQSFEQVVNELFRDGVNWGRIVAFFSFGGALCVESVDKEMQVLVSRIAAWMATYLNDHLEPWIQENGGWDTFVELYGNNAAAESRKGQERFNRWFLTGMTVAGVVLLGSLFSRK", "assay": "Binding affinity to Bcl-xL (unknown origin) assessed as inhibition constant"}, "[9]": {"molecular_target": "T3, Bcl-2-like protein 1", "assay": "Binding affinity to recombinant His-tagged human Bcl-xL expressed in Escherichia coli assessed as inhibition constant by SPR analysis"}, "[10]": {"molecular_target": "T1, Apoptosis regulator Bcl-2", "assay": "Inhibition of Flu-BakBH3 binding to GST-tagged Bcl-2 (unknown origin) preincubated for 10 mins followed by Flu-BakBH3 addition and measured after 30 mins by competitive fluorescence polarization assay"}, "[11]": {"molecular_target": "T4, Bcl-2-like protein 2 (Homo sapiens, UniProt Q92843)", "T4 sequence (Q92843 whole entry)": "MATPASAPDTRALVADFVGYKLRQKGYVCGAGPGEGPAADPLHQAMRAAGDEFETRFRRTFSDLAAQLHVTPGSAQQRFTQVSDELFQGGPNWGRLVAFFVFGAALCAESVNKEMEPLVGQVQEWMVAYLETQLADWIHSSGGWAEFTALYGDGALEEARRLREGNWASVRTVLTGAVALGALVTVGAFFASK", "assay": "Binding affinity to Bcl-w (unknown origin) assessed as inhibition constant by competitive fluorescence polarization assay"}, "[12]": {"molecular_target": "T2, Induced myeloid leukemia cell differentiation protein Mcl-1", "assay": "Binding affinity to Mcl-1 (unknown origin) assessed as inhibition constant by TR-FRET assay"}, "[13]": {"tested_on": "RS4-11", "assay": "Induction of apoptosis in human RS4-11 cells", "assay_type": "functional, cell-based"}, "[14]": {"assay": "Half-life in human", "assay_type": "ADME"}, "[15]": {"molecular_target": "T1, Apoptosis regulator Bcl-2", "assay": "Binding affinity to recombinant His-tagged human Bcl-2 expressed in Escherichia coli assessed as inhibition constant by SPR analysis"}}, "note": "Where a SMILES comes first, the peptide text is derived from it."}
{"compound": "CCOC(=O)C1=C(N)Oc2ccc(Br)cc2C1C(C#N)C(=O)OCC", "note": "(stereo not given)", "values": [{"measurement": "IC50", "setting": "[1]", "result": 9000, "unit": "nM"}]}
{"compound": "O=[N+]([O-])c1ccccc1Nc1nnc(-c2c[nH]c3ccccc23)o1", "values": [{"measurement": "IC50", "setting": "[2]", "result": 4270, "unit": "nM"}]}
{"compound": "CC(C)(C)c1ccc(C(=O)NCCN2C(=O)c3cccc4c(Sc5ccc(Br)cc5)ccc(c34)C2=O)cc1", "values": [{"measurement": "IC50", "setting": "[3]", "result": 7900, "unit": "nM"}, {"measurement": "IC50", "setting": "[4]", "result": 2110, "unit": "nM"}]}
{"compound": "COc1c(O)cc(O)c2c(=O)cc(-c3ccc(O)c(O)c3)oc12", "values": [{"measurement": "Kd", "setting": "[5]", "result": 36100, "unit": "nM"}]}
{"compound": "CC1=C(C2=C(C)C(=O)C3C(C(C)C)=C(O)C(O)=CC3C2=O)C(=O)c2cc(O)c(O)c(C(C)C)c2C1=O", "note": "(stereo not given)", "values": [{"measurement": "Ki", "setting": "[6]", "result": 25, "unit": "nM"}, {"measurement": "Ki", "setting": "[7]", "result": 35, "unit": "nM"}, {"measurement": "Ki", "setting": "[8]", "result": 660, "unit": "nM"}]}
{"compound": "CCCCCCCCCCCCCCCC(=O)N[C@H](C(=O)N[C@@H](C)C(=O)N[C@@H](CCC(N)=O)C(=O)N[C@@H](CCC(=O)O)C(=O)N[C@@H](CCCNC(=N)N)C(=O)N[C@@H](CCCNC(=N)N)C(=O)N[C@H](C(=O)NCC(=O)N[C@@H](CC(=O)O)C(=O)N[C@@H](CCC(=O)O)C(=O)N[C@@H](Cc1ccccc1)C(N)=O)[C@@H](C)CC)[C@@H](C)CC", "note": "(HELM PEPTIDE1{[CCCCCCCCCCCCCCCC(=O)[*:2]].I.A.Q.E.R.R.I.G.D.E.F.[am]}$$$$V2.0)", "values": [{"measurement": "Ki", "setting": "[9]", "result": 22.2, "unit": "nM"}]}
{"compound": "Cc1cc2c(C(C)C)c(O)c(O)cc2c(O)c1-c1c(C)cc2c(C(C)C)c(O)c(O)cc2c1O", "note": "[APOGOSSYPOL]", "values": [{"measurement": "EC50", "setting": "[10]", "result": 2800, "unit": "nM"}]}
{"compound": "CC1(C)CCC(c2ccc(Cl)cc2)=C(CN2CCN(c3ccc(C(=O)NS(=O)(=O)c4ccc(N[C@H](CCN5CCOCC5)CSc5ccccc5)c(S(=O)(=O)C(F)(F)F)c4)cc3)CC2)C1", "note": "[NAVITOCLAX]", "values": [{"measurement": "Ki", "setting": "[11]", "result": "≤ 1", "unit": "nM"}]}
{"compound": "CC1(C)CCC(CN2CCN(c3ccc(C(=O)NS(=O)(=O)c4ccc(NCC5CCOCC5)c([N+](=O)[O-])c4)c(Oc4cnc5[nH]ccc5c4)c3)CC2)=C(c2ccc(Cl)cc2)C1", "note": "[VENETOCLAX]", "values": [{"measurement": "Ki", "setting": "[12]", "result": "> 444", "unit": "nM"}, {"measurement": "EC50", "setting": "[13]", "result": 3, "unit": "nM"}, {"measurement": "half-life", "setting": "[14]", "result": 26, "unit": "h"}]}
{"compound": "Ac-IAQERRIGDEF-NH2", "values": [{"measurement": "Ki", "setting": "[15]", "result": 9.48, "unit": "nM"}]}
